The record followed here is patent US5274121A, “N-methyl-N-[4-(1-pyrrolidinyl)-2-butynyl]amide congeners as muscarinic agents” (priority 1992, dated 1993).

“Also recorded” adds a separate entry of the source. Like-named read-outs stand apart in the source and are kept apart here.

In assay [1] the test system is SK-N-SH human neuroblastoma cells (m4 AChR). Put plainly: Stimulation of PI turnover in SK-N-SH cells. Type of assay: cell-based. The note with it: for Emax at 100 µM: Homo sapiens, 0.5 h. The protocol:
(§1) Compounds of the present invention were tested for their binding affinities and activation of second messengers in selective muscarinic cholinergic receptor systems. It is believed that m1 -, m4 -, and m5 AChRs couple exclusively to PI turnover, whereas m2 - and m3 -AChRs couple only to adenylate cyclase inhibition.
(§2) Compounds of the present invention were screened for their biological activity. Assay systems using SK-N-SH human neuroblastoma cells which express only m4 -AChRs coupled to PI turnover, and NG108-15 neuroblastoma x glioma cells which express only m3 AChRs coupled to adenylate cyclase inhibition were used.
Stimulation of PI turnover in SK-N-SH cells
Cells were plated into 24-well plates at 100,000 cells per well. After 24 hours, they were labeled overnight with 2 μCi per well of [^3 H]-myo-inositol (American Radiolabeled Chemicals, Inc., St. Louis, Mo.; 15 Ci/mM; 2 μL of stock per mL of media). The cells were then rinsed twice with 10 mM LiCl in DMEM-Hepes and the cells were incubated in this solution for 5 min at 37° C. The indicated compound was then added at a final concentration of 100 μM and the cells were incubated for another 30 min at 37° C. The reaction was stopped by aspirating the solution and adding cold methanol to the cells. After transferring the cells to a glass tube and sonicating briefly, chloroform and water were added to make a two-phase system. The upper aqueous phase was applied to 0.6 mL anion exchange columns (AG X8, Bio-Rad) and the columns were washed and total inositol phosphates were eluted with 1M ammonium formate and 0.1M formic acid.

For assay [2], the target named is T1, muscarinic receptors, NG108-15 cell membranes (m3 AChR) (Mus musculus, UniProt P32211).
T1 construct: membranes from NG108-15 cells; endogenous in cells; host or cells: NG108-15 neuroblastoma x glioma hybrid cells (crude membrane fraction)
T1 sequence (P32211 1-479): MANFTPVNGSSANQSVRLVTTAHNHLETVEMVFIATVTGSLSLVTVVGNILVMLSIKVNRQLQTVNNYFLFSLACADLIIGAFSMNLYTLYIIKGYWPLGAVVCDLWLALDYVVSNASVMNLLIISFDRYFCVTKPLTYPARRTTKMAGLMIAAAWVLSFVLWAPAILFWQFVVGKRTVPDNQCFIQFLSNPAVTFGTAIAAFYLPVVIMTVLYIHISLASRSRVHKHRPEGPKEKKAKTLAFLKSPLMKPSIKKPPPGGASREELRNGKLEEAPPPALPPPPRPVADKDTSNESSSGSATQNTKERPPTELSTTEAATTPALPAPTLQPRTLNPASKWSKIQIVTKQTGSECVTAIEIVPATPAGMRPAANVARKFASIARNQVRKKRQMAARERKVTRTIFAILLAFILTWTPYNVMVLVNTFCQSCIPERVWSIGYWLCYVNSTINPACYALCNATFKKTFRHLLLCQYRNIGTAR
Put plainly: Inhibition of [3H]-NMS binding to membranes from NG108-15 cells. The note with it: for inhibition at 50 µM: read-out: binding (% inhibition of 3H-NMS binding); for inhibition at 100 µM: conc. of compounds = 100 μM.
Description: as §2
(§3) Compounds of the present invention were also screened for their relative binding affinities. Assay systems which measured the inhibition of ^3 H-N-methylscopolamine (^3 H-NMS) binding to membranes from NG108-15 cells and membranes from SK-N-SH cells were used.
(§4) Inhibition of [^3 H]-NMS binding
(§5) Cells were grown to confluence, harvested, and a crude membrane fraction was obtained. […] The total volume was 1 mL. The incubation was terminated by rapid filtration over GF/B filters using a Brandel cell harvester. The filters were washed three times with ice-cold 0.9% NaCl, equilibrated in scintillation counting fluid and counted on a Beckman LS 5801 liquid scintillation counter at 47% efficiency. Non-specific binding was determined by coincubation with 1 μM atropine, and amounted to less than 15% of total counts. It was routinely subtracted from the total counts.

Assay [3] has as its target T2, muscarinic receptors, SK-N-SH cell membranes (m4 AChR) (Homo sapiens, UniProt P20309).
T2 construct: membranes from SK-N-SH cells; endogenous in cells; host or cells: SK-N-SH human neuroblastoma cells (crude membrane fraction)
Put plainly: Inhibition of [3H]-NMS binding to membranes from SK-N-SH cells. The note with it: for inhibition at 50 µM: read-out: binding (% inhibition of 3H-NMS binding); for inhibition at 100 µM: conc. of compounds = 100 μM.
Description: as §2, §3, §4, §5

In assay [4] the test system is NG108-15 neuroblastoma x glioma cells (m3 AChR). Put plainly: Inhibition of PGE1-stimulated cAMP levels in NG108-15 cells. Type of assay: cell-based. To be noted: read-out: cAMP Inhib (relative to OXO-M). A general note: cAMP levels reflect the balance of adenylyl cyclase and phosphodiesterase activity.
Assay [5] has the same test system. The assay is described as above. It is filed as cell-based. To be noted: for agonist selectivity, in words: NG108-15 (cAMP) versus SK-N-SH (PI turnover); for inhibition at 100 µM: NG108-15, NG108-15 cells, relative to control with no compounds added, conc. of compounds = 100 μM, read-out: cAMP Inhib. The procedure:
as §1, §2
Inhibition of PGE1 -stimulated cAMP levels in NG108-15 cells
Cells were plated in 24-well plates and were grown to 90% confluence. The growth media was then replaced with a solution of 1 mM IBMX in DMEM-Hepes (0.5 mL per well) and the cells were incubated for 10 min at 37° C. Agonists were then added at a final concentration of 100 μM, along with PGE1 (final conc, 5 μM), and the cells were incubated for a further 15 min at 37° C. The reaction Was terminated by aspirating the solution and adding 0.5 mL of 0.1N HCl. In order to extract the cAMP from the cells, they were incubated in 0.1 N HCl for 30 min at room temperature. An aliquot (35 50 μL) was removed, lyophilized, and assayed for cAMP by radioimmunoassay.

Where [6] appears, read: NG108-15 cells, conc. of compound = 50 μM.
[7] abbreviates: SK-N-SH cells, conc. of compound = 50 μM.
Where [8] appears, read: 0.25 h, NG108-15 cells, data relative to OXO-M, conc. of compounds = 50 μM.
[9] abbreviates: SK-N-SH cells, data relative to OXO-M, conc. of compounds = 100 μM, read-out: Pi turnover (relative to OXO-M).

T2 sequence (P20309 whole entry): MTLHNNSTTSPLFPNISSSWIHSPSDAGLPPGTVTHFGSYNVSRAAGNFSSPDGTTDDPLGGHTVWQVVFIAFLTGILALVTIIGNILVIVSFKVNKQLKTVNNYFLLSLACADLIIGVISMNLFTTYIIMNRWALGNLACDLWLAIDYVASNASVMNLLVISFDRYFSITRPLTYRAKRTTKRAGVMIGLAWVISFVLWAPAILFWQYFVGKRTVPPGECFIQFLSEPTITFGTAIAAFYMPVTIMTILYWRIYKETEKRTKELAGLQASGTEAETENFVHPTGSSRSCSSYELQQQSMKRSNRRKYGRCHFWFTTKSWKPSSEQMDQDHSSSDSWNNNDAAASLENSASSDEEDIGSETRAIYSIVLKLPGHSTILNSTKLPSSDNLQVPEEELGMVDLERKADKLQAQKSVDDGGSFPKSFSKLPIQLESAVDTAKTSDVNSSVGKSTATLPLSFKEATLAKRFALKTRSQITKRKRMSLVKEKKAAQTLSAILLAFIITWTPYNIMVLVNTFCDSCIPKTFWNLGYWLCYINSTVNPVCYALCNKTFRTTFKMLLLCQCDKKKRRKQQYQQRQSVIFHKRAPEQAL

As to `CN(CC#CCN1CCCC1)C(=O)Oc1ccc(Cl)cc1` [Compound 027], the Emax at 100 µM in assay [1] (SK-N-SH, read-out: Pi turnover (relative to OXO-M)) was found to be 1 ± 1%. Also, the inhibition at 50 µM in assay [2] worked out at 27 ± 4%; in assay [3], 62 ± 1%. Further, in assay [4] (NG108-15, 0.25 h), the Emax at 50 µM came out at 40 ± 10%.

With `CN(CC#CCN1CCCC1)CC1OCCO1` [Compound 029, N-(2,5-dioxolylmethyl)-N-methyl-4-(1-pyrrolidinyl)-2-butynamine], the inhibition at 50 µM in assay [2] (setting [6]) turned out to be 5 ± 5%; in assay [3] (setting [7]), 19 ± 5%. Besides, in assay [4] (setting [8]), the Emax at 50 µM is 40 ± 10%.

As to `CN(CC#CCN1CCCC1)CCC1OCCO1` [Compound 031], the results for the inhibition at 50 µM in assay [2] (setting [6]) and in assay [3] (setting [7]) were 7 ± 5% and 20 ± 3%, respectively. In addition, the Emax at 50 µM in assay [4] (setting [8]) was 50 ± 10%.

As to `COc1ccc(NC(=O)N(C)CC#CCN2CCCC2)cc1` [Compound 028], the inhibition at 50 µM is 24 ± 6% in assay [2] (setting [6]) and 61 ± 12% in assay [3] (setting [7]). Also, the Emax at 50 µM in assay [4] (setting [8]) came out at 20 ± 10%.

For the molecule `CN(CC#CCN1CCCC1)C(=O)CCC(=O)O` [Compound 008, N-Methyl-N-[4-(1-pyrrolidinyl)-2-butynyl]-3-carboxypropanamide], the inhibition at 50 µM in assay [2] (setting [6]) amounted to 1 ± 1%; in assay [3] (setting [7]), 7 ± 2%. Moreover, the Emax at 50 µM in assay [4] (setting [8]) stood at 10 ± 10%.

Turning to `CN(CC#CCN1CCCC1)C(=O)CCC(=O)NCCN` [Compound 019, N-Methyl-N-[4-(1-pyrrolidinyl)-2-butynyl]-2-[4-(2-aminoethyl)carboxamido]propanamide], the inhibition at 50 µM in assay [2] (setting [6]) stood at 14 ± 2%; in assay [3] (setting [7]) it was 25 ± 5%. The Emax at 50 µM in assay [4] (setting [8]) came to 10 ± 10%.

`CN(CC#CCN1CCCC1)C(=O)c1ccccc1` [Compound 032]: in assay [1] (setting [9]), the Emax at 100 µM was 4 ± 2%. Further, the inhibition at 50 µM was determined as 7 ± 4% in assay [2] (setting [6]) and 20 ± 5% in assay [3] (setting [7]). Besides, in assay [4] (setting [8]), the Emax at 50 µM is 50 ± 20%.

For the molecule `CN(CC#CCN1CCCC1)C(=O)CCN` [Compound 017], in assay [5], the “agonist selectivity, in words” value is recorded as “selective agonists”; the inhibition at 100 µM turned out to be 20.8 ± 1.7%; the “agonist activity in NG108-15 cells (cAMP inhibition), in words” value is recorded as “most active as agonists in NG108-15 cells; also recorded: approximately half as active as the full agonist oxotremorine-M”. The “stimulation of PI turnover, in words” value in assay [1] (SK-N-SH cells) was “inactive in SK-N-SH cells”. Moreover, the inhibition at 100 µM in assay [2] (NG108-15 cells) was determined as 15.1 ± 3.5%. This molecule also yielded an inhibition at 100 µM in assay [3] (SK-N-SH cells) of 18.1 ± 2.8%.

`CC(=O)NCCNC(=O)CCC(=O)N(C)CC#CCN1CCCC1` [Compound 023]: in assay [1] (setting [9]), the Emax at 100 µM was 6 ± 4%. The inhibition at 50 µM came out at 6 ± 4% in assay [2] (setting [6]) and 6 ± 5% in assay [3] (setting [7]). Also, the Emax at 50 µM in assay [4] (setting [8]) came to 20 ± 10%.

Consider `CN(CC#CCN1CCCC1)C(=O)CN` [Compound 007, N-Methyl-N-[4-(1-pyrrolidinyl)-2-butynyl]-2-aminoacetamide], for which, in assay [5], the “agonist selectivity, in words” value is given as “selective agonists”; the inhibition at 100 µM amounted to 26.1 ± 1.6%; the “agonist activity in NG108-15 cells (cAMP inhibition), in words” value is on record as “most active as agonists in NG108-15 cells; also recorded: approximately half as active as the full agonist oxotremorine-M”. Besides, the “stimulation of PI turnover, in words” value in assay [1] (SK-N-SH cells) is “inactive in SK-N-SH cells”. The same molecule displayed an inhibition at 100 µM in assay [2] (NG108-15 cells) of 23.5 ± 4%. In assay [3] (SK-N-SH cells), this molecule had an inhibition at 100 µM of 17.3 ± 3.3%.

On to `COC(=O)CCC(=O)N(C)CC#CCN1CCCC1` [Compound 009, N-Methyl-N-[4-(1-pyrrolidinyl)-2-butynyl]-3-methoxycarbonylpropanamide], for which the inhibition at 50 µM turned out to be 5 ± 3% in assay [2] (setting [6]) and 8 ± 1% in assay [3] (setting [7]). Besides, the Emax at 50 µM in assay [4] (setting [8]) was 10 ± 10%.

For the molecule `CN(CC#CCN1CCCC1)C(=O)c1cccc(Cl)c1` [Compound 026], in assay [1] (setting [9]), the Emax at 100 µM was determined as 1 ± 1%. Moreover, the inhibition at 50 µM in assay [2] (setting [6]) was 17 ± 4%; in assay [3] (setting [7]) it was 27 ± 10%. In assay [4] (setting [8]), the Emax at 50 µM was found to be 30 ± 10%.

For the molecule `CC(=O)NCCCC(=O)N(C)CC#CCN1CCCC1` [Compound 022], the figures for the inhibition at 100 µM in assay [5], in assay [2] (NG108-15 cells) and in assay [3] (SK-N-SH cells) were 8 ± 3.7%, 19.1 ± 1.8% and 15.6 ± 1.6%, respectively. Further, the “agonist activity in NG108-15 cells (cAMP inhibition), in words” value in assay [5] is recorded as “substantial activity”. Moreover, the Emax at 100 µM in assay [1] (SK-N-SH cells, percent relative to the activity of OXO-M, conc. of compounds = 100 μM, read-out: Pi turnover) is 14 ± 5%.
